Results: article PMC8126654, “Novel Pan-Pim Kinase Inhibitors With Imidazopyridazine and Thiazolidinedione Structure Exert Potent Antitumor Activities” (Frontiers in Pharmacology, 2021)
pIC50: −log10 of the molar value.

Tests used:
FLT3 = target: T1, FLT3 (Homo sapiens, UniProt P36888); assay: FLT3 kinase activity assay (FRET-based Z'-LYTE); assay type: biochemical; conditions: ATP 500 µM; read-out: IC50 against FLT3 kinase
T1 construct: purchased Life Technologies; Thermo Fisher Scientific Inc
T1 sequence (P36888 27-993): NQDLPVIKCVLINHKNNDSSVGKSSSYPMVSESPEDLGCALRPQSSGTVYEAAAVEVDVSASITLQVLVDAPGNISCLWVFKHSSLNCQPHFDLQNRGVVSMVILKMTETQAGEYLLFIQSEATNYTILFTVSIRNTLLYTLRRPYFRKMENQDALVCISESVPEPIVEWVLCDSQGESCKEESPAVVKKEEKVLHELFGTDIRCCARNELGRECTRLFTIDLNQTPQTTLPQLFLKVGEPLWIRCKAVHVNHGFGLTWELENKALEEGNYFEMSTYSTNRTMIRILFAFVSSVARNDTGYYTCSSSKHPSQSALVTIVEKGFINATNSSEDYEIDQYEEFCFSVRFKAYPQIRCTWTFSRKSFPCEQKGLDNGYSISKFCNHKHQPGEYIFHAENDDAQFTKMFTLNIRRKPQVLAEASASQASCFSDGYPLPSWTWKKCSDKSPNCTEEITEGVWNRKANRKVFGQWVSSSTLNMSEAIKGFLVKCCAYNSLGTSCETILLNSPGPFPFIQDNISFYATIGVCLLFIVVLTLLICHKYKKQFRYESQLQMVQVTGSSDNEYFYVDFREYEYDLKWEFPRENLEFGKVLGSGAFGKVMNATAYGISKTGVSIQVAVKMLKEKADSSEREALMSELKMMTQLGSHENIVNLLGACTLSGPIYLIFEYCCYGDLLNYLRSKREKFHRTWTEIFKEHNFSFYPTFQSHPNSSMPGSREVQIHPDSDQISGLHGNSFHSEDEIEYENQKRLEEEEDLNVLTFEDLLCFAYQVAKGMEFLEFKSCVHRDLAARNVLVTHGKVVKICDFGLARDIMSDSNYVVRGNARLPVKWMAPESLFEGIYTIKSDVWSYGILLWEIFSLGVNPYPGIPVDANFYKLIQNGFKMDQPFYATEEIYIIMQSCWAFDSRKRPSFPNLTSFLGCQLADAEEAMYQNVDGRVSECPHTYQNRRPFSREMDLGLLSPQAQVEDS
Description: The inhibition ratios of test compounds for Pim-1, 2 (Life Technologies; Thermo Fisher Scientific Inc., MA, United States), 3 (Merck KgaA), and FLT3 (Life Technologies; Thermo Fisher Scientific Inc., MA, United States) were determined using a modified FRET-based Z′-LYTE kinase assay kit (Invitrogen; Thermo Fisher Scientific Inc.). The Ser/Thr 7 peptide and Tyr-2 peptide were used as substrates for Pim kinases and FLT3, respectively. The reactions were carried out in a 384-well plate with a 10 µL reaction volume per well containing 1 µM substrates in 50 mM HEPES buffer with pH 7.5, 0.01% BRIJ-35, 10 mM MgCl2, 1 mM EGTA, and an appropriate amount of kinases (Pim-1: 0.03 μg/ml, Pim-2: 0.2 μg/ml, Pim-3: 0.2 μg/ml, FLT3: 0.1 μg/ml) with test compounds. The final reaction concentrations of ATP were 400, 5, 100, and 500 µM for Pim-1, 2, 3, and FLT3 respectively. After 1 h incubation, reactions were developed and terminated, and fluorescence ratios were calculated following the manufacturer’s protocol.

cancer cell lines = assay: Cytotoxicity assay for cell survival (cancer cell proliferation); assay type: cell-based; conditions: 96 hours; read-out: IC50 for proliferation of a broad spectrum of cancer cell lines (range)
Source text: We obtained colon cancer HCT116 and HT-29 cells, prostate cancer PC-3, DU145, and LNCaP cells, lung cancer NCI-H460 and NCI-H522 cells, breast cancer MDA-MB-231 cells, AML MV-4-11 cells, and chronic myeloid leukemia (CML) K-562, MEG-01, and KU812 cells from American Type Culture Collection (Manassas, VA, United States); stomach cancer MKN45 cells from the Health Science Research Resources Bank (Osaka, Japan); pancreatic cancer AsPC-1 and MIA PaCa-2, and lung cancer A549 cells from DS Pharma Biomedical (Osaka, Japan). All cell lines were cultured in RPMI1640 medium (Life Technologies; Thermo Fisher Scientific Inc.) with 10% (v/v) fetal bovine serum (FBS; Sigma-Aldrich; Merck KgaA) at 37°C in 5% CO2.
Cells were seeded in 96-well plates and test compounds were added to the cultures at several concentrations.

MV-4-11 [1] = assay: Immunoblot analysis of phosphorylation of Pim kinase substrates, MV-4-11; assay type: cell-based; conditions: MV-4-11, 4 h
Description: (§1) Cells were plated overnight and then treated with test compounds for 4 hours. Then, the cells were lyzed in solubilization buffer [10 mM Tris-HCl (pH7.4), 0.1% (w/v) NP-40, 0.1% (w/v) sodium deoxycholate, 0.1% (w/v) SDS, 0.15 M NaCl, 1 mM EDTA, 10 µM aprotinin] with phosphatase inhibitor cocktails (Nakarai Tesque, Kyoto, Japan), and subjected to SDS-PAGE using 15% (w/v) gels under reducing conditions. The separated proteins were electrotransferred to Immobilon transfer membranes (Merck Millipore, Darmstadt, Germany). Then, each membrane was reacted with primary antibodies, which were subsequently complexed with appropriate horseradish peroxidase-conjugated secondary antibodies. Signals were detected using the ECL Western Blotting Detection System (GE Healthcare Life Sciences) and protein expression was quantified with a LAS-3000 Luminescent Image Analyzer (GE Healthcare Life Sciences). The protein bands were quantified using ImageQuant TL software (GE Healthcare Life Sciences).

PC-3 = assay: Immunoblot analysis of phosphorylation of Pim kinase substrates, PC-3; assay type: cell-based; conditions: PC-3, 4 h
Description: as §1

MKN45 = assay: Immunoblot analysis of phosphorylation of Pim kinase substrates, MKN45; assay type: cell-based; conditions: MKN45, 4 h
Description: as §1

MV-4-11 [2] = assay: Cell cycle analysis, MV-4-11; assay type: cell-based; conditions: 24 h (DMSO 52%)
Source text: After treatment, cells were fixed and stained with propidium iodide using the Cell Cycle Phase Determination kit (Cayman Chemical, Ann Arbor, MI, United States) and analyzed by Guava EasyCyteTM Plus System (Merck Millipore).

HCT116 = assay: Apoptosis assay in HCT116 (Hoechst 33342 nuclear morphology, Cell Death ELISA); assay type: cell-based
Description: For caspase-3/7 activity assay, the Caspase-Glo 3/7 Assay System (Promega, Madison, WI) was used according to the manufacturer’s protocol. […] The Caspase-Glo 3/7 reagent was then added to each well and incubated for 1 h, and caspase-3/7 activity was measured. […] After treatment, cells were stained in 0.5 μg/ml Hoechst 33342 for 30 min. Subsequently, cell morphology was observed and images were captured from random visual fields using fluorescence microscopy (Biozero BZ-8100, Keyence, Osaka, Japan). […] After treatment, DNA fragmentation was detected using the Cell Death Detection ELISA^PLUS (Roche Applied Science, Mannheim, Germany).

Compound: CN1CCN(c2ccc(-c3cnc4ccc(/C=C5\SC(=O)NC5=O)nn34)cc2)CC1 [YPC-21440, (Z)-5-([3-{4-(4-methylpiperazin-1-yl)phenyl}imidazo[1,2-b]pyridazin-6-yl]methylene)thiazolidine-2,4-dione]
- pIC50 (FLT3): 6.41
- pIC50 (cancer cell lines): 6.00 to 7.57
- Phosphorylation level of 4EBP (MV-4-11 [1]): decreased
- Phosphorylation levels of Bad, 4EBP, and p21 (PC-3): decreased
- Phosphorylation levels of Bad, 4EBP, and p21 (MKN45): decreased
- Percentage of cells in G1 phase (MV-4-11 [2]; MV-4-11, 0.3 µM): 55%
- Percentage of cells in G1 phase (MV-4-11 [2]; MV-4-11, 1 µM): 77%
- Chromatin condensation (HCT116; HCT116, 1 µM, 48 h): induced
- DNA fragmentation (HCT116; HCT116, ≥ 0.3 µM, 24 h): induced
